Reference: patent US7622469B2, “2,4-diamino-1,3,5-triazine derivatives” (Hamari Chemicals, Ltd., priority 2002, dated 2009)

Columns and labels:
MRSA 97-115 [1] = assay: Antibacterial activity test (MIC); format: cell-based, methicillin-resistant Staphylococcus aureus; details: Mueller-Hinton Broth, 37° C., 20 to 24 hours
Procedure, shortened: (§1)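 Broth dilution MIC per the Japanese Society of Chemotherapy standard method in Mueller-Hinton Broth. Strains were grown statically at 37° C for 16 to 20 hours and diluted in sterile saline to 10^5/ml. Compounds were dissolved in methanol and serially diluted twofold in medium, giving 100 μg/ml and 2^n-fold (n=−10 to 1).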

E. coli NIHJ JC-2 [2] = assay: Antibacterial activity test (MIC); format: cell-based; details: Mueller-Hinton Broth, 37° C., 20 to 24 hours
Procedure, shortened: as §1

S. aureus 209PJC [3] = assay: Antibacterial activity test (MIC); format: cell-based; details: Mueller-Hinton Broth, 37° C., 20 to 24 hours
Procedure, shortened: as §1

P. aeruginosa PAO-1 [4] = assay: Antibacterial activity test (MIC); format: cell-based; details: Mueller-Hinton Broth, 37° C., 20 to 24 hours
Procedure, shortened: as §1

MRSA 97-115 [5] = assay: Bactericidal activity test (MBC, phenol coefficient measuring method); format: cell-based, methicillin-resistant Staphylococcus aureus
Protocol: (§2) As a test bacterium, the same bacteria species as those of the antibacterial activity test were used; as a medium to be used, a SCD medium (manufactured by Eiken Chemical Co., Ltd.) was used for pre-culture medium; and a heart infusion bouillon medium (manufactured by Eiken Chemical Co., Ltd.) was used as a medium for growing a live bacterium in a test solution after bactericidal treatment. One platinum loop of a test bacterium was inoculated into 20 ml of a medium, and static culture was carried out at 37° C. for 18 to 20 hours, and the cells were adjusted with a sterilized physiological saline to 1×10^7/ml, which was used as a test bacterium solution.
(§3) Then, a solution of each compound in methanol was subjected to ½ stepwise dilution with sterilized water, each 5 ml was dispensed into a test tube, 0.5 ml of the previously prepared test bacterium solution was added thereto, and the mixture was blended well. After 1 minute, 3 minutes and 5 minutes has passed, 5 μl of the test solution was collected and inoculated into 2 ml of a heart infusion bouillon medium, this was cultured at 37° C. for 40 to 48 hours, and the presence or absence of growth of a bacterium was determined. A test was performed three times, a minimum concentration at which growth of a bacterium was not recognized two or more times was adopted as a minimal bactericidal concentration (MBC value).
(§4) Numerical values in Tables represent MBC expressed in μg/ml unit.

E. coli NIHJ JC-2 [6] = assay: as above; format: cell-based
Protocol: as §2, §3, §4

S. aureus 209PJC [7] = assay: as above; format: cell-based
Protocol: as §2, §3, §4

P. aeruginosa PAO-1 [8] = assay: as above; format: cell-based
Protocol: as §2, §3, §4

SMILES | minimal inhibitory concentration (MIC) (MRSA 97-115 [1]) [µg/mL] | minimal inhibitory concentration (MIC) (E. coli NIHJ JC-2 [2]) [µg/mL] | minimal inhibitory concentration (MIC) (S. aureus 209PJC [3]) [µg/mL] | minimal inhibitory concentration (MIC) (P. aeruginosa PAO-1 [4]) [µg/mL] | minimal bactericidal concentration (MBC) (MRSA 97-115 [5]; 1 min) [µg/mL] | minimal bactericidal concentration (MBC) (MRSA 97-115 [5]; 3 min) [µg/mL] | minimal bactericidal concentration (MBC) (MRSA 97-115 [5]; 5 min) [µg/mL] | minimal bactericidal concentration (MBC) (E. coli NIHJ JC-2 [6]; 1 min) [µg/mL] | minimal bactericidal concentration (MBC) (E. coli NIHJ JC-2 [6]; 3 min) [µg/mL] | minimal bactericidal concentration (MBC) (E. coli NIHJ JC-2 [6]; 5 min) [µg/mL] | minimal bactericidal concentration (MBC) (S. aureus 209PJC [7]; 1 min) [µg/mL] | minimal bactericidal concentration (MBC) (S. aureus 209PJC [7]; 3 min) [µg/mL] | minimal bactericidal concentration (MBC) (S. aureus 209PJC [7]; 5 min) [µg/mL] | minimal bactericidal concentration (MBC) (P. aeruginosa PAO-1 [8]; 1 min) [µg/mL] | minimal bactericidal concentration (MBC) (P. aeruginosa PAO-1 [8]; 3 min) [µg/mL] | minimal bactericidal concentration (MBC) (P. aeruginosa PAO-1 [8]; 5 min) [µg/mL]
CCCCCCCCCCNC1=NC(C)(C)N=C(NCc2ccc(OC)cc2)N1.CS(=O)(=O)O [38(2)] | 0.8 | 25 | 0.4 | 100 | 25 | 12.5 | 12.5 | 6.3 | 3.1 | 3.1 | 12.5 | 6.3 | 3.1 | 6.3 | 3.1 | 1.6
CCCCCCCCCCNC1=NC(C)(C)N=C(NCCc2ccc(OC)cc2)N1.Cl [compound 4] | 0.8 | 50 | 0.4 | 50 | 25 | 6.3 | 6.3 | 3.1 | 1.6 | 1.6 | 50 | 12.5 | 6.3 | 3.1 | 3.1 | 1.6
CCCCCCCCCC1N=C(N)N=C(N)N1c1ccc(C(C)(C)C)cc1.Cl (stereo not shown) [compound 22] | 0.8 | 25 | 0.8 | 25 | 25 | 25 | 12.5 | 6.3 | 6.3 | 6.3 | 12.5 | 6.3 | 6.3 | 12.5 | 3.1 | 3.1
CCCCCCCCCCC1N=C(N)N=C(N)N1c1ccc(F)c(F)c1F.Cl (stereo not shown) [compound 31] | 3.1 | 12.5 | 1.6 | 25 | 25 | 12.5 | 6.3 | 12.5 | 12.5 | 6.3 | 25 | 12.5 | 12.5 | 12.5 | 12.5 | 6.3
